Experimental data taken from patent US20100016387A1, “METHOD OF TREATMENT” (priority 2006, published 2010).

Assays:
[1] = tested on: neonatal rat cardiomyocytes; assay: Fatty acid oxidation (14CO2 release from 14C-palmitate) in rat primary cardiomyocytes treated with DGAT1 inhibitor; conditions: 1 μM, 2 hr
Procedure: Neonatal Rat Ventricular Myocytes (NRVM's) were extracted from 1-3 day old Sprague Dawley rat pups. […] Both the right and left ventricles were digested in CBHHF media containing 0.2% Trypsin, 100 U Penn-Strep and DNAse II. […] Fibroblasts were separated from the myocytes by preplating for 30 min. […] Myocytes were then collected and cultured in MEM/5% FBS/Pen-Strep/BrDU/L-Gln overnight at 37 C, 5.0% CO2 at a confluency of 75-80% (1.8×10^6 cells per well of a 6 well plate and 0.9×10^6 cells per well of a 12 well plate). The following day myocyte containing plates were assayed for fatty acid oxidation capacity.
Rat primary cardiomyocytes were plated in either 6 well plate or 12 well plate. […] The sample was counted on a beta scintillation counter after resting for at least 2 hours. […]
Primary rat cardiomyocytes were incubated with 1 μM {4-[4-(4-Amino-7,7-dimethyl-7H-pyrimido[4,5-b][1,4]oxazin-6-yl)-phenyl]-cyclohexyl}-acetic acid for 2 hr. The cells were then incubated with ^14C-labeled palmitate and liberated ^14CO2 was determined as described. […]
Primary rat cardiomyocytes were incubated with 1 μM {4-[4-(4-Amino-7,7-dimethyl-7H-pyrimido[4,5-b][1,4]oxazin-6-yl)-phenyl]-cyclohexyl}-acetic acid for 2 hr. The cells were then incubated with ^14C-labeled palmitate, with 0.5 mM glucose, and liberated ^14CO2 was determined as described. […]

Row | Compound | melting point [°C] | fatty acid oxidation in cardiomyocytes in presence of glucose ([1]; 0.5 mM glucose, FIG. 3, p<0.05) | decrease in the ability of cells to oxidize [14C]palmitate ([1]; absence of glucose, FIG. 2, p<0.05) [%]
1 | Cc1ccc(NC(=O)c2ccc3c(c2)C(=O)N(c2c(C)cccc2C)C3=O)cc1C | 223 to 225 |  | 
2 | CC1(C)Oc2ncnc(N)c2N=C1c1ccc(C2CCC(CC(=O)O)CC2)cc1 (stereo not drawn) |  | robust decrease in fatty acid oxidation | ~15
